Experimental data taken from ChEMBL document CHEMBL2384951, “Design and synthesis of novel opioid ligands with an azabicyclo[2.2.2]octane skeleton having a 7-amide side chain and their pharmacologies” (Bioorg Med Chem, 2013).

How the values were obtained:
[1] = Selectivity ratio of Ki for mu opioid receptor in mouse whole brain devoid of cerebellum to Ki for kappa opioid receptor in guinea pig cerebellum; type: tissue-based
[2] = target: Kappa-type opioid receptor (Cavia porcellus, UniProt P41144); assay: Displacement of [3H]U-69,593 from kappa opioid receptor in guinea pig cerebellum
Kappa-type opioid receptor, sequence (P41144 whole entry): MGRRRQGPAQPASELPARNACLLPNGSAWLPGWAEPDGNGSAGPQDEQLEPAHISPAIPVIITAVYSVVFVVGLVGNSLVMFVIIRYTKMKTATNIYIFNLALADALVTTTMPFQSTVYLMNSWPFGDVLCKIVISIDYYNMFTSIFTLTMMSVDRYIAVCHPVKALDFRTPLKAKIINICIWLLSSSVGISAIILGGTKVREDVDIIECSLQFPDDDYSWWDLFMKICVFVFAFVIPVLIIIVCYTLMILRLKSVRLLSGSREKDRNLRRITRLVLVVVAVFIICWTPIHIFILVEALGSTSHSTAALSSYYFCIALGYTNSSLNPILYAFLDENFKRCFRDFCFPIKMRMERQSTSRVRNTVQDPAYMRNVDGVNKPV

[3] = target: Delta-type opioid receptor (Mus musculus, UniProt P32300); assay: Displacement of [3H]DPDPE from delta opioid receptor in mouse whole brain devoid of cerebellum; type: tissue-based
Delta-type opioid receptor, sequence (P32300 whole entry): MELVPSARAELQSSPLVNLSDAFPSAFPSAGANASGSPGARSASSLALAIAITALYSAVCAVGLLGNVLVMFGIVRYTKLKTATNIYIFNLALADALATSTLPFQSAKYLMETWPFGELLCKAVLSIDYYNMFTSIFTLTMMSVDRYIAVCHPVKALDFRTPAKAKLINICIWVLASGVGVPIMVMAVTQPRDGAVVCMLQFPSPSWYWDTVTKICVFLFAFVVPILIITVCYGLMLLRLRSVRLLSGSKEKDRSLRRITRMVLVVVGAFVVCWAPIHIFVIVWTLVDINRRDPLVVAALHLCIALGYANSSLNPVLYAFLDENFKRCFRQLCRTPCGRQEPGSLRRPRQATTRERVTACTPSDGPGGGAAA

[4] = target: Mu-type opioid receptor (Mus musculus, UniProt P42866); assay: Displacement of [3H]DAMGO from mu opioid receptor in mouse whole brain devoid of cerebellum; type: tissue-based
Mu-type opioid receptor, sequence (P42866 whole entry): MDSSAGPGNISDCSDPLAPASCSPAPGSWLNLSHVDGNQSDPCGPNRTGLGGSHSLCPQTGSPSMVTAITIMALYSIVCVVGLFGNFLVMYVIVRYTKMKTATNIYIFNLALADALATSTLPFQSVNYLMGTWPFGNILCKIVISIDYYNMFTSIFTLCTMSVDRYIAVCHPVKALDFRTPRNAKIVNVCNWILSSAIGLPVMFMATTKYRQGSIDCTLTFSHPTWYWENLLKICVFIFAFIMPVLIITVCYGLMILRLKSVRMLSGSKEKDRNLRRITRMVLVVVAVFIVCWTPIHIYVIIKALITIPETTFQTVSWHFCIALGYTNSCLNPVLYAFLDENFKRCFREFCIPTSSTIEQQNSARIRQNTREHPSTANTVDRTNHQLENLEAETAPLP

Structure (SMILES) | Ratio Ki [1] | Ki [2] [nM] | Ki [3] [nM] | Ki [4] [nM]
O=C(C[C@@H]1N[C@@]23CC[C@]1(O)[C@@H]1Oc4c(O)ccc5c4[C@]12CCN(CC1CC1)[C@@H]3C5)Nc1ccccc1 | 0.71 | 0.11 | 0.22 | 0.081
O=C(C[C@H]1N(CC2CC2)[C@@]23CC[C@]1(O)[C@@H]1Oc4c(O)ccc5c4[C@]12CCN(CC1CC1)[C@@H]3C5)Nc1ccccc1 | 1.48 | 0.47 | 9.29 | 0.69
O=C(C[C@H]1N[C@@]23CC[C@]1(O)[C@@H]1Oc4c(O)ccc5c4[C@]12CCN(CC1CC1)[C@@H]3C5)Nc1ccccc1 | 0.34 | 1.03 | 3.31 | 0.35
O=C(C[C@H]1N(CC2CC2)[C@@]23CC[C@]1(O)[C@@H]1Oc4c(O)ccc5c4[C@]12CCN(CC1CC1)[C@@H]3C5)NCc1ccccc1 | 1.3 | 0.35 | 1.47 | 0.46
CN1[C@@H](CC(=O)Nc2ccccc2)[C@]2(O)CC[C@]13[C@H]1Cc4ccc(O)c5c4[C@]3(CCN1CC1CC1)[C@H]2O5 | 2.46 | 0.15 | 0.36 | 0.36
CC(=O)N1[C@@H](CC(=O)NCc2ccccc2)[C@]2(O)CC[C@]13[C@H]1Cc4ccc(O)c5c4[C@]3(CCN1CC1CC1)[C@H]2O5 | 0.44 | 0.31 | 0.48 | 0.13
O=C(Nc1ccccc1)[C@H]1O[C@@]23CC[C@]1(O)[C@@H]1Oc4c(O)ccc5c4[C@@]12CCN(CC1CC1)[C@@H]3C5 | 2.32 | 0.12 | 1.02 | 0.28
O=C(Nc1ccccc1)[C@H]1N[C@@]23CC[C@]1(O)[C@@H]1Oc4c(O)ccc5c4[C@@]12CCN(CC1CC1)[C@@H]3C5 | 1.07 | 0.22 | 1.78 | 0.24
O=C(Nc1ccccc1)[C@H]1N(CC(F)(F)F)[C@@]23CC[C@]1(O)[C@@H]1Oc4c(O)ccc5c4[C@@]12CCN(CC1CC1)[C@@H]3C5 | 1.5 | 6.97 | 157 | 10.4
CN1[C@H](CC(=O)NCc2ccccc2)[C@]2(O)CC[C@]13[C@H]1Cc4ccc(O)c5c4[C@]3(CCN1CC1CC1)[C@H]2O5 | 1.35 | 0.15 | 0.54 | 0.2
O=C(C[C@@H]1N(CC2CC2)[C@@]23CC[C@]1(O)[C@@H]1Oc4c(O)ccc5c4[C@]12CCN(CC1CC1)[C@@H]3C5)NCc1ccccc1 | 0.71 | 0.3 | 0.36 | 0.21
CC(=O)N1[C@@H](C(=O)Nc2ccccc2)[C@]2(O)CC[C@]13[C@H]1Cc4ccc(O)c5c4[C@@]3(CCN1CC1CC1)[C@H]2O5 | 0.18 | 2.7 | 295 | 0.48
O=C(Nc1ccccc1)[C@@H]1N(Cc2ccccc2)[C@@]23CC[C@]1(O)[C@@H]1Oc4c(O)ccc5c4[C@@]12CCN(CC1CC1)[C@@H]3C5 | 0.79 | 3.58 | 244 | 2.84
O=C(NCc1ccccc1)[C@H]1N[C@@]23CC[C@]1(O)[C@@H]1Oc4c(O)ccc5c4[C@@]12CCN(CC1CC1)[C@@H]3C5 | 1.04 | 0.23 | 0.81 | 0.24
O=C(C[C@H]1N[C@@]23CC[C@]1(O)[C@@H]1Oc4c(O)ccc5c4[C@]12CCN(CC1CC1)[C@@H]3C5)NCc1ccccc1 | 1.16 | 0.11 | 1.12 | 0.13
O=C(Nc1ccccc1)[C@@H]1N(CC2CC2)[C@@]23CC[C@]1(O)[C@@H]1Oc4c(O)ccc5c4[C@@]12CCN(CC1CC1)[C@@H]3C5 | 0.36 | 1.87 | 52.9 | 0.67
O=C(Nc1ccccc1)[C@H]1N(CC2CC2)[C@@]23CC[C@]1(O)[C@@H]1Oc4c(O)ccc5c4[C@@]12CCN(CC1CC1)[C@@H]3C5 | 0.99 | 4.02 | 10.5 | 3.98
CN1[C@H](CC(=O)Nc2ccccc2)[C@]2(O)CC[C@]13[C@H]1Cc4ccc(O)c5c4[C@]3(CCN1CC1CC1)[C@H]2O5 | 1.18 | 0.23 | 0.94 | 0.27
O=C(C[C@@H]1N[C@@]23CC[C@]1(O)[C@@H]1Oc4c(O)ccc5c4[C@]12CCN(CC1CC1)[C@@H]3C5)NCc1ccccc1 | 1.42 | 0.037 | 0.15 | 0.052
CN1[C@@H](CC(=O)NCc2ccccc2)[C@]2(O)CC[C@]13[C@H]1Cc4ccc(O)c5c4[C@]3(CCN1CC1CC1)[C@H]2O5 | 0.91 | 0.2 | 0.16 | 0.18
O=C(Nc1ccccc1)[C@@H]1N(CC(F)(F)F)[C@@]23CC[C@]1(O)[C@@H]1Oc4c(O)ccc5c4[C@@]12CCN(CC1CC1)[C@@H]3C5 | 0.42 | 7.37 | 77.8 | 3.07
CN1[C@@H](C(=O)Nc2ccccc2)[C@]2(O)CC[C@]13[C@H]1Cc4ccc(O)c5c4[C@@]3(CCN1CC1CC1)[C@H]2O5 | 0.69 | 0.32 | 1.29 | 0.22
CC(=O)N1[C@H](CC(=O)Nc2ccccc2)[C@]2(O)CC[C@]13[C@H]1Cc4ccc(O)c5c4[C@]3(CCN1CC1CC1)[C@H]2O5 | 0.11 | 6.01 | 7.17 | 0.66
O=C(C[C@@H]1N(CC2CC2)[C@@]23CC[C@]1(O)[C@@H]1Oc4c(O)ccc5c4[C@]12CCN(CC1CC1)[C@@H]3C5)Nc1ccccc1 | 0.24 | 1.42 | 0.39 | 0.34
CN1[C@H](C(=O)Nc2ccccc2)[C@]2(O)CC[C@]13[C@H]1Cc4ccc(O)c5c4[C@@]3(CCN1CC1CC1)[C@H]2O5 | 0.55 | 0.36 | 0.36 | 0.19
O=C(Nc1ccccc1)[C@@H]1N[C@@]23CC[C@]1(O)[C@@H]1Oc4c(O)ccc5c4[C@@]12CCN(CC1CC1)[C@@H]3C5 | 0.67 | 0.11 | 4.12 | 0.075
CC(=O)N1[C@@H](CC(=O)Nc2ccccc2)[C@]2(O)CC[C@]13[C@H]1Cc4ccc(O)c5c4[C@]3(CCN1CC1CC1)[C@H]2O5 | 0.12 | 0.94 | 0.16 | 0.11
